Source: ChEMBL document CHEMBL3627608, “Crystal structures of human RIP2 kinase catalytic domain complexed with ATP-competitive inhibitors: Foundations for understanding inhibitor selectivity” (Bioorg Med Chem, 2015)

Legend:
[1] = biological target: Tyrosine-protein kinase JAK3 (Homo sapiens) (UniProt P52333); experiment: Inhibition of JAK3 (unknown origin) at 10 uM after 120 mins P33 radiolabeled kinase activity assay
[2] = biological target: RAC-gamma serine/threonine-protein kinase (Homo sapiens) (UniProt Q9Y243); experiment: Inhibition of AKT3 (unknown origin) at 10 uM after 120 mins P33 radiolabeled kinase activity assay
[3] = biological target: Serine/threonine-protein kinase 3 (Homo sapiens) (UniProt Q13188); experiment: Inhibition of MST2 (unknown origin) at 10 uM after 120 mins P33 radiolabeled kinase activity assay
[4] = biological target: Dual specificity tyrosine-phosphorylation-regulated kinase 4 (Homo sapiens) (UniProt Q9NR20); experiment: Inhibition of DYRK4 (unknown origin) at 10 uM after 120 mins P33 radiolabeled kinase activity assay
[5] = biological target: Megakaryocyte-associated tyrosine-protein kinase (Homo sapiens) (UniProt P42679); experiment: Inhibition of CTK (unknown origin) at 10 uM after 120 mins P33 radiolabeled kinase activity assay
[6] = biological target: Serine/threonine-protein kinase PAK 1 (Homo sapiens) (UniProt Q13153); experiment: Inhibition of PAK1 (unknown origin) at 10 uM after 120 mins P33 radiolabeled kinase activity assay
[7] = biological target: Lymphokine-activated killer T-cell-originated protein kinase (Homo sapiens) (UniProt Q96KB5); experiment: Inhibition of PBK (unknown origin) at 10 uM after 120 mins P33 radiolabeled kinase activity assay
[8] = biological target: Serine/threonine-protein kinase WNK1 (Homo sapiens) (UniProt Q9H4A3); experiment: Inhibition of WNK1 (unknown origin) at 10 uM after 120 mins P33 radiolabeled kinase activity assay
[9] = biological target: Serine/threonine-protein kinase 24 (Homo sapiens) (UniProt Q9Y6E0); experiment: Inhibition of MST3 (unknown origin) at 10 uM after 120 mins P33 radiolabeled kinase activity assay
[10] = biological target: Tau-tubulin kinase 1 (Homo sapiens) (UniProt Q5TCY1); experiment: Inhibition of TTBK1 (unknown origin) at 10 uM after 120 mins P33 radiolabeled kinase activity assay
[11] = biological target: Serine/threonine-protein kinase Nek6 (Homo sapiens) (UniProt Q9HC98); experiment: Inhibition of NEK6 (unknown origin) at 10 uM after 120 mins P33 radiolabeled kinase activity assay
[12] = biological target: Serine/threonine-protein kinase tousled-like 1 (Homo sapiens) (UniProt Q9UKI8); experiment: Inhibition of TLK1 (unknown origin) at 10 uM after 120 mins P33 radiolabeled kinase activity assay
[13] = biological target: Serine/threonine-protein kinase 26 (Homo sapiens) (UniProt Q9P289); experiment: Inhibition of MST4 (unknown origin) at 10 uM after 120 mins P33 radiolabeled kinase activity assay
[14] = biological target: Calcium/calmodulin-dependent protein kinase type II subunit alpha (Homo sapiens) (UniProt Q9UQM7); experiment: Inhibition of CAMK2alpha (unknown origin) at 10 uM after 120 mins P33 radiolabeled kinase activity assay
[15] = biological target: Serine/threonine-protein kinase 25 (Homo sapiens) (UniProt O00506); experiment: Inhibition of STK25 (unknown origin) at 10 uM after 120 mins P33 radiolabeled kinase activity assay
[16] = biological target: Casein kinase II subunit alpha' (Homo sapiens) (UniProt P19784); experiment: Inhibition of CK2alpha2 (unknown origin) at 10 uM after 120 mins P33 radiolabeled kinase activity assay
[17] = biological target: Mitogen-activated protein kinase kinase kinase 3 (Homo sapiens) (UniProt Q99759); experiment: Inhibition of MEKK3 (unknown origin) at 10 uM after 120 mins P33 radiolabeled kinase activity assay
[18] = biological target: Activin receptor type-1B (Homo sapiens) (UniProt P36896); experiment: Inhibition of ALK4 (unknown origin) at 10 uM after 120 mins P33 radiolabeled kinase activity assay
[19] = biological target: SRSF protein kinase 3 (Homo sapiens) (UniProt Q9UPE1); experiment: Inhibition of MSSK1 (unknown origin) at 10 uM after 120 mins P33 radiolabeled kinase activity assay
[20] = biological target: LIM domain kinase 2 (Homo sapiens) (UniProt P53671); experiment: Inhibition of LIMK2 (unknown origin) at 10 uM after 120 mins P33 radiolabeled kinase activity assay
[21] = system: Fibroblast growth factor receptor; experiment: Inhibition of FGFR (unknown origin) at 10 uM after 120 mins P33 radiolabeled kinase activity assay; conditions: Homo sapiens
[22] = biological target: Rho-associated protein kinase 1 (Homo sapiens) (UniProt Q13464); experiment: Inhibition of ROCK1 (unknown origin) at 10 uM after 120 mins P33 radiolabeled kinase activity assay
[23] = biological target: Dual specificity mitogen-activated protein kinase kinase 4 (Homo sapiens) (UniProt P45985); experiment: Inhibition of MKK4 (unknown origin) at 10 uM after 120 mins P33 radiolabeled kinase activity assay
[24] = biological target: Bone morphogenetic protein receptor type-2 (Homo sapiens) (UniProt Q13873); experiment: Inhibition of BMPR2 (unknown origin) at 10 uM after 120 mins P33 radiolabeled kinase activity assay
[25] = biological target: Serine/threonine-protein kinase 16 (Homo sapiens) (UniProt O75716); experiment: Inhibition of STK16 (unknown origin) at 10 uM after 120 mins P33 radiolabeled kinase activity assay
[26] = biological target: CDK4/Cyclin D3 (Homo sapiens) (UniProt P11802+P30281); experiment: Inhibition of CDK4/cyclin D3 (unknown origin) at 10 uM after 120 mins P33 radiolabeled kinase activity assay; type: protein-complex assay
[27] = biological target: Mitogen-activated protein kinase kinase kinase 8 (Homo sapiens) (UniProt P41279); experiment: Inhibition of COT1 (unknown origin) at 10 uM after 120 mins P33 radiolabeled kinase activity assay
[28] = biological target: Dual specificity mitogen-activated protein kinase kinase 6 (Homo sapiens) (UniProt P52564); experiment: Inhibition of MKK6 (unknown origin) at 10 uM after 120 mins P33 radiolabeled kinase activity assay
[29] = biological target: Protein kinase C theta type (Homo sapiens) (UniProt Q04759); experiment: Inhibition of PKCtheta (unknown origin) at 10 uM after 120 mins P33 radiolabeled kinase activity assay
[30] = biological target: Serine/threonine-protein kinase ICK (Homo sapiens) (UniProt Q9UPZ9); experiment: Inhibition of LCK2 (unknown origin) at 10 uM after 120 mins P33 radiolabeled kinase activity assay
[31] = biological target: Dual specificity mitogen-activated protein kinase kinase 1 (Homo sapiens) (UniProt Q02750); experiment: Inhibition of MEK1 (unknown origin) at 10 uM after 120 mins P33 radiolabeled kinase activity assay
[32] = biological target: TGF-beta receptor type-2 (Homo sapiens) (UniProt P37173); experiment: Inhibition of TGFBR2 (unknown origin) at 10 uM after 120 mins P33 radiolabeled kinase activity assay
[33] = biological target: Mitogen-activated protein kinase kinase kinase 21 (Homo sapiens) (UniProt Q5TCX8); experiment: Inhibition of MLK4 (unknown origin) at 10 uM after 120 mins P33 radiolabeled kinase activity assay
[34] = biological target: Wee1-like protein kinase (Homo sapiens) (UniProt P30291); experiment: Inhibition of WEE1 (unknown origin) at 10 uM after 120 mins P33 radiolabeled kinase activity assay

Sequence of Casein kinase II subunit alpha' (Homo sapiens) (P19784 whole entry, looked up): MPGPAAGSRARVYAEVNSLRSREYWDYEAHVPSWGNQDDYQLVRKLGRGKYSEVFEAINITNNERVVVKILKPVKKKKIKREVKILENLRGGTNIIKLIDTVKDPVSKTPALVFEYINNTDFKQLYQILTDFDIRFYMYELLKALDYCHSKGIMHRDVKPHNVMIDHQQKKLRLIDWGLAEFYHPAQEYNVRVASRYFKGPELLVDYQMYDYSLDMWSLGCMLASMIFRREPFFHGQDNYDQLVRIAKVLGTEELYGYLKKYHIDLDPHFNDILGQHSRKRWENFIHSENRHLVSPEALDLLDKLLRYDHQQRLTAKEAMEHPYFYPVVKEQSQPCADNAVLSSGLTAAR
Sequence of Dual specificity mitogen-activated protein kinase kinase 1 (Homo sapiens) (Q02750 whole entry): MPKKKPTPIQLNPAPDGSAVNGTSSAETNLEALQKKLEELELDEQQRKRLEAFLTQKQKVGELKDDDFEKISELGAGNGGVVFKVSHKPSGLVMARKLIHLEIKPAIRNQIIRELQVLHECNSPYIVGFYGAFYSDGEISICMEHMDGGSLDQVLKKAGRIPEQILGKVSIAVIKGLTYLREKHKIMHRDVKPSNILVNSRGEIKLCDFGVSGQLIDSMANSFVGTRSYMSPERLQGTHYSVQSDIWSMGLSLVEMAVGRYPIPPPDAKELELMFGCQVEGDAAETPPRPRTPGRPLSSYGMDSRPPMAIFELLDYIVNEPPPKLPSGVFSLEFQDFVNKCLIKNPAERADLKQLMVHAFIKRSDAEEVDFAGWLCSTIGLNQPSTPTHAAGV
Sequence of Rho-associated protein kinase 1 (Homo sapiens) (Q13464 2-1354 limits assumed): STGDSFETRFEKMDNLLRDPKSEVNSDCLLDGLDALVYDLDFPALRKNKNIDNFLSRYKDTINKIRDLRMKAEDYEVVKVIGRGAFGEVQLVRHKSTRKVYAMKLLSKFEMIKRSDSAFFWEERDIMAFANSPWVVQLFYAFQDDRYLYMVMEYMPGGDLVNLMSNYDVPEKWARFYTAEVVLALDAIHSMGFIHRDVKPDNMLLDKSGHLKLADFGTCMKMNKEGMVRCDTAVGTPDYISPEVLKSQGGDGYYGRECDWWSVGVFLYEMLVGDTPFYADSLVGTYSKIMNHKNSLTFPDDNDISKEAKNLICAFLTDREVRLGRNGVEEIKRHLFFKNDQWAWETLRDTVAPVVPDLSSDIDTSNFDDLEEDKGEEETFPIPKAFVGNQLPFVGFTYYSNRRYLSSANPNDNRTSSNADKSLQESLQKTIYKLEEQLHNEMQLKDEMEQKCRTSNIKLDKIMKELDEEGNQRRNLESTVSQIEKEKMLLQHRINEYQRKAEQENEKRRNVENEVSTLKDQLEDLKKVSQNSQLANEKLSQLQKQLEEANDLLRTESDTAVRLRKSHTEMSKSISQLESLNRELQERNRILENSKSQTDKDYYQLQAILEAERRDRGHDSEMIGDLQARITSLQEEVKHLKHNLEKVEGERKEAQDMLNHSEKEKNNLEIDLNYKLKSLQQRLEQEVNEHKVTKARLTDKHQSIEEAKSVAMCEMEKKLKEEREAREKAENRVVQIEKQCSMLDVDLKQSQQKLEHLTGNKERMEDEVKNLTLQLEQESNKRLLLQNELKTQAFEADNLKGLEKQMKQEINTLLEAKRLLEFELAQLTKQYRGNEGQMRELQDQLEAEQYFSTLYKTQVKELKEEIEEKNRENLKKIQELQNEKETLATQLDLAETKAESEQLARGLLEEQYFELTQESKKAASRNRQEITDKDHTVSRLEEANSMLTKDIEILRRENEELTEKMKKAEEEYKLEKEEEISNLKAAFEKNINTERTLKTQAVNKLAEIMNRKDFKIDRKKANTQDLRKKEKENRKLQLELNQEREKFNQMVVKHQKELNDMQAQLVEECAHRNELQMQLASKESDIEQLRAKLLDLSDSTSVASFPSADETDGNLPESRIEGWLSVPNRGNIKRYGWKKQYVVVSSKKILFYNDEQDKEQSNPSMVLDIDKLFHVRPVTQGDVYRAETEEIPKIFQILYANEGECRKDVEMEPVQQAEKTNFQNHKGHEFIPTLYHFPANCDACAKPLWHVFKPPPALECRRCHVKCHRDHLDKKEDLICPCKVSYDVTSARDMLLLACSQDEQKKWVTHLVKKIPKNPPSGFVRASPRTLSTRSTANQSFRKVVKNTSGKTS
Sequence of Tau-tubulin kinase 1 (Homo sapiens) (Q5TCY1 whole entry): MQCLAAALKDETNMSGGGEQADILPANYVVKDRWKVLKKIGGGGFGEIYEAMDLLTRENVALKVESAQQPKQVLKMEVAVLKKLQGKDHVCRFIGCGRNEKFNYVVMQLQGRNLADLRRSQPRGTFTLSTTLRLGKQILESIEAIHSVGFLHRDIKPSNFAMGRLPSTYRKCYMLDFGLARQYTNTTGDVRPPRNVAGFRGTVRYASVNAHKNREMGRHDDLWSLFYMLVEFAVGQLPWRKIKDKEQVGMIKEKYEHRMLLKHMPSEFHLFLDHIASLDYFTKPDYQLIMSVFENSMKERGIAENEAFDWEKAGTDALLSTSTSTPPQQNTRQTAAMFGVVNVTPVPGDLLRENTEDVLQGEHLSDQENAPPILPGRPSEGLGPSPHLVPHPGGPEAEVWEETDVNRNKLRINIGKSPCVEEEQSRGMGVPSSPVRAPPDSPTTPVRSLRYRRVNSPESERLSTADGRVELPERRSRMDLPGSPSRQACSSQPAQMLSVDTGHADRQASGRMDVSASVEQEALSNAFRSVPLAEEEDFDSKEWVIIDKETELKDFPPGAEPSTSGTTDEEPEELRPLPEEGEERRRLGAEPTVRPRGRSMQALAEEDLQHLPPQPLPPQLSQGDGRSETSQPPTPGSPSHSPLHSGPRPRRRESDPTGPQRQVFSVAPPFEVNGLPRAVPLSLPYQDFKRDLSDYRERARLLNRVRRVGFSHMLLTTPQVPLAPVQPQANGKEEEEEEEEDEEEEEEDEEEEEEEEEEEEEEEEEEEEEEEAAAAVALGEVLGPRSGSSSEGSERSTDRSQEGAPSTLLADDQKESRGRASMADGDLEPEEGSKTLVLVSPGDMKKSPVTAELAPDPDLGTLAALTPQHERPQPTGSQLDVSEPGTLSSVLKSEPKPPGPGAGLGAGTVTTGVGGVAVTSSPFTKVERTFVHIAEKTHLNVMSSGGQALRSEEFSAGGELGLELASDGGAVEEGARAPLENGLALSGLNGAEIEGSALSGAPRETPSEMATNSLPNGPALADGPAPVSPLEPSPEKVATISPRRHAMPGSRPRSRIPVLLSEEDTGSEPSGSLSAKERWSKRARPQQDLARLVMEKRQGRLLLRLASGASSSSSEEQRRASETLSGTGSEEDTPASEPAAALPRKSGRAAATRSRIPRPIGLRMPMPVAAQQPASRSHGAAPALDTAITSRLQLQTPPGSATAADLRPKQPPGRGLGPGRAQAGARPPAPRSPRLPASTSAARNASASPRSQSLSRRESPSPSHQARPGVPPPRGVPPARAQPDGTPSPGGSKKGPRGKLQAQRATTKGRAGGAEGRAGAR
Sequence of RAC-gamma serine/threonine-protein kinase (Homo sapiens) (Q9Y243 whole entry): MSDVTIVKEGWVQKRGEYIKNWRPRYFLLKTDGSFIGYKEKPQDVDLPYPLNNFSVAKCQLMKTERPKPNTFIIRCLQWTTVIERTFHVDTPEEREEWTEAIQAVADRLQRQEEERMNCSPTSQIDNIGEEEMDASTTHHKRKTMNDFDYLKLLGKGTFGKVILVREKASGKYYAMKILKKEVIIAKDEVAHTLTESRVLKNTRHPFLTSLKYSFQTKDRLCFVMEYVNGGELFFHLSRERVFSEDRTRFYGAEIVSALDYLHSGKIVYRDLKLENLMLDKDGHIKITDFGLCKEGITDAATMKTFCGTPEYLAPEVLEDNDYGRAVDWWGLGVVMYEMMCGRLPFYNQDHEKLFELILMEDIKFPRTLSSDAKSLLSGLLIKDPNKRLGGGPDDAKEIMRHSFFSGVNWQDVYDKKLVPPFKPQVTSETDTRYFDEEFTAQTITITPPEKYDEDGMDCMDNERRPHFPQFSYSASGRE
Sequence of Bone morphogenetic protein receptor type-2 (Homo sapiens) (Q13873 whole entry): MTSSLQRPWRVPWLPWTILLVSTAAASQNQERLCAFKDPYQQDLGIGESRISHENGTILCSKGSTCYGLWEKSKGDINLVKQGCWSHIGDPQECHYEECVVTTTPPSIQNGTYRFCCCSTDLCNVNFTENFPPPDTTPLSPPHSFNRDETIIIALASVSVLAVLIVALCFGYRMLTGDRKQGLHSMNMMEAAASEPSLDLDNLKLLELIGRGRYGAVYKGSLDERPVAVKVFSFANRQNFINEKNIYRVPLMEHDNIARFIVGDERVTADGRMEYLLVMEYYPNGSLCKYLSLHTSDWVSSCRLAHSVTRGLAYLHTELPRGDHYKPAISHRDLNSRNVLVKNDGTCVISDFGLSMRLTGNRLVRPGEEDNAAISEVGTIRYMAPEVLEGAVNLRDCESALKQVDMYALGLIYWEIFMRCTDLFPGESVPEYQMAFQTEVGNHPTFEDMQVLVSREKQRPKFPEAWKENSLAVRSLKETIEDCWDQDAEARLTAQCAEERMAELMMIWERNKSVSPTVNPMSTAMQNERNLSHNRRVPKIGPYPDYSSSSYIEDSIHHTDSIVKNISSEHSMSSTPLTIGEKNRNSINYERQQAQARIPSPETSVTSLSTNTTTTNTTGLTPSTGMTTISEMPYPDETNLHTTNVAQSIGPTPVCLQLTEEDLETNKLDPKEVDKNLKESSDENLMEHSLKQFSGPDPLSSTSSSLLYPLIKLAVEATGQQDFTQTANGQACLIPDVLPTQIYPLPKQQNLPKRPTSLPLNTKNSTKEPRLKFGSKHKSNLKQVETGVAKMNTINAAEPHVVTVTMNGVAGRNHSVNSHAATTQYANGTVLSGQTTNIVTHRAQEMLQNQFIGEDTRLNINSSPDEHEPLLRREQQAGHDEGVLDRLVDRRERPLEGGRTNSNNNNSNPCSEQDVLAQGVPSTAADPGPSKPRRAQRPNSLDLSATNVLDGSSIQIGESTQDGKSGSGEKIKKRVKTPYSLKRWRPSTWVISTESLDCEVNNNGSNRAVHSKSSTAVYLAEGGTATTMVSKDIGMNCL

SMILES | inhibition [1] [%] | inhibition [2] [%] | inhibition [3] [%] | inhibition [6] [%] | inhibition [7] [%] | inhibition [8] [%] | inhibition [10] [%] | inhibition [12] [%] | inhibition [14] [%] | inhibition [16] [%] | inhibition [19] [%] | inhibition [20] [%] | inhibition [22] [%] | inhibition [23] [%] | inhibition [24] [%] | inhibition [26] [%] | inhibition [31] [%] | other results
COCCNC(=O)c1ccc2c(c1)nc(-c1cnc(-c3ccc(Cl)cc3)[nH]1)n2CCOC | -7.14 | 6.03 | -5.33 | 5.25 | 11.6 | 8.03 | 7.91 | -7.05 | -3.57 | -7.82 | – | – | – | – | – | – | – | inhibition [4]: -3.46%; inhibition [5]: 10.8%; inhibition [9]: 23.8%; inhibition [11]: -5.95%; inhibition [13]: 3.31%; inhibition [15]: -0.09%
CS(=O)(=O)c1cccc(Nc2nccc(-c3sc(N4CCOCC4)nc3-c3cccc(NS(=O)(=O)c4c(F)cccc4F)c3)n2)c1 | 15.9 | 6.38 | – | 56.5 | – | – | – | -4.48 | -6.79 | 39.8 | -1.37 | 99.1 | -6.9 | 19.4 | 19.6 | 26.6 | 72.5 | inhibition [17]: 9.88%; inhibition [18]: 42.4%; inhibition [21]: 46.7%; inhibition [25]: 7.44%; inhibition [27]: 11.2%; inhibition [28]: 80.9%; inhibition [29]: -5.48%; inhibition [30]: -4.6%; inhibition [32]: 96.6%; inhibition [33]: 49.7%
CC(C)(C)c1cc(NC(=O)Nc2ccc(Oc3ccncc3)cc2)no1 | – | – | -4.9 | – | 12.2 | 5.52 | 8.16 | – | – | – | 85 | 53.8 | 9.07 | 1.14 | 6.56 | 92.5 | 22 | inhibition [34]: -4.91%
